# According to patent US20040214834A1, “Pyrazolo-pyridines for the treatment of herpes infections” (priority 2001, published 2004):
# System: HSV-1
# Assay: HSV-1 replication in infected Vero 76 cells, viral DNA detected by hybridization capture
# Type: cell-based, herpes simplex virus 1
# Conditions: Human alphaherpesvirus 1; HSV-1, Vero 76 cells, MOI=0.001, 40-48 hours incubation
# Experimental: Vero 76 cells were maintained in MEM with Earle's salts, L-glutamine, 8% FBS (Hyclone, A-1111-L) and 100 units/mL Penicillin-100 μg/mL Streptomycin. For assay conditions, FBS was reduced to 2%. Cells are seeded into 96-well tissue culture plates at a density of 5×10^4 cells/well after being incubated for 45 min at 37° C. in the presence of HSV-1 or HSV-2 (MOI=0.001). Test compounds are added to the wells and the plates are incubated at 37° C. for 40-48 hours. Cell lysates are prepared as follows: media was removed and replaced with 150 μL/well 0.2 N NaOH with 1% Igepal CA 630 or NP-40. Plates were incubated up to 14 days at room temperature in a humidified chamber to prevent evaporation.
# For the detection probe, a gel-purified, digoxigenin-labeled, 710-bp PCR fragment of the HSV UL-15 sequence was utilized. PCR conditions included 0.5 μM primers, 180 μM dTTP, 20 μM dUTP-digoxigenin (Boehringer Mannheim 1558706), 200 μM each of dATP, dCTP, and dGTP, 1× PCR Buffer II (Perkin Elmer), 2.5 mM MgCl2, 0.025 units/μL of AmpliTaq Gold polymerase (Perkin Elmer), and 5 ng of gel-purified HSV DNA per 100 μL Extension conditions were 10 min at 95° C., followed by 30 cycles of 95° C. for 1 min. 55° C. for 30 sec. and 72° C. for 2 min. The amplification was completed with a 10-min incubation at 72° C. […] Single-stranded transcripts were purified with Promega M13 Wizard kits. The final product was mixed 1:1 with a mixture of 6 M GuSCN, 100 mM EDTA and 200 μg/mL herring sperm DNA and stored at 4° C.
# The capture DNA plasmid (HSV UL13 region in pUC) was linearized by cutting with Xbal, denatured for 15 min at 95° C. and diluted immediately into Reacti-Bind DNA Coating Solution (Pierce, 17250, diluted 1:1 with TE buffer, pH 8) at 1 ng/μL. 75 μL/well were added to Corning (#3922 or 9690) white 96-well plates and incubated at room temperature for at least 4 hrs before washing twice with 300 μL/well 0.2×SSC/0.05% Tween-20 (SSC/T buffer). The plates were then incubated overnight at room temperature with 150 μL/well 0.2 N NaOH, 1% IGEPAL and 10 μg/mL herring sperm DNA.
# Twenty-seven (27) μL of cell lysate was combined with 45 μL of hybridization solution (final concentration: 3M GuSCN, 50 mM EDTA, 100 μg/ml salmon sperm DNA, 5× Denhardt's solution, 0.25×APE, and 5 ng of the digoxigenin-labeled detection probe). APE is 1.5 M NH4-acetate, 0.15 M ammonium phosphate monobasic, and 5 mM EDTA adjusted to pH 6.0. Mineral oil (50 μL) was added to prevent evaporation. The hybridization plates were incubated at 95° C. for 10 minutes to denature the DNA, then incubated at 42° C. overnight. The wells were washed 6× with 300 μL/well SSC/T buffer then incubated with 75 μL/well anti-digoxigenin- HRP-conjugated antibody (Boehringer Mannheim 1207733, 1:5000 in TE) for 30 min at room temperature. The wells were washed 6× with 300 μL/well with PBS/0.05% Tween-20 before 75 μL/well SuperSignal LBA substrate (Pierce) was added. The plates were incubated at room temperature for 30 minutes and chemiluminescence was measured in a Wallac Victor reader.
# The following results were obtained for HSV-1.
row,Compound,IC50
1,"COc1ccc(-c2nn3c(SC(C)C)cc(NC4CCCC4)cc3c2-c2ccnc(NC3CCCC3)n2)cc1 [Example 11, N-Cyclopentyl-3-[2-(cyclopentylamino)-4-pyrimidinyl]-7-(isopropylsulfanyl)-2-(4-methoxyphenyl)pyrazolo[1,5-α]pyridin-5-amine]",175 nM
2,"Cc1cc(NC2CCCC2)cc2c(-c3ccnc(NC4CCCC4)n3)c(-c3ccc(F)cc3)nn12 [Example 3, N-Cyclopentyl-3-[2-(cyclopentylamino)-4-pyrimidinyl]-2-(4-fluorophenyl)-7-methylpyrazolo[1,5-α]pyridin-5-amine]",322 nM
3,"CCSc1cc(NC2CCCC2)cc2c(-c3ccnc(NC4CCCC4)n3)c(-c3ccc(F)cc3)nn12 [Example 2, N-Cyclopentyl-3-[2-(cyclopentylamino)-4-pyrimidinyl]-7-(ethylsulfanyl)-2-(4-fluorophenyl)pyrazolo[1,5-δ]pyridin-5-amine]",74 nM
4,"CSc1cc(NC2CCCC2)cc2c(-c3ccnc(NC4CCCC4)n3)c(-c3ccc(F)cc3)nn12 [Example 5, N-Cyclopentyl-3-[2-(cyclopentylamino)-4-pyrimidinyl]-2-(4-fluorophenyl)-7-(methylsulfanyl)pyrazolo[1,5-α]pyridin-5-amine]",130 nM
5,"CCOc1cc(NC2CCCC2)cc2c(-c3ccnc(NC4CCCC4)n3)c(-c3ccc(F)cc3)nn12 [Example 4, N-Cyclopentyl-3-[2-(cyclopentylamino)-4-pyrimidinyl]-7-ethoxy-2-(4-fluorophenyl)pyrazolo[1,5-α]pyridin-5-amine]",160 nM
6,"COCCOc1cc(NC2CCCC2)cc2c(-c3ccnc(NC4CCCC4)n3)c(-c3ccc(F)cc3)nn12 [Example 6, N-Cyclopentyl-3-[2-(cyclopentylamino)-4-pyrimidinyl]-2-(4-fluorophenyl)-7-(2-methoxyethoxy)pyrazolo[1,5-α]pyridin-5-amine]",82 nM

# Further lines, results first:
row,IC50,Compound
1,260 nM,"CC(C)Sc1cc(NC2CCCC2)cc2c(-c3ccnc(NC4CCCC4)n3)c(-c3ccc(F)cc3)nn12 [Example 13, N-Cyclopentyl-3-[2-(cyclopentylamino)-4-pyrimidinyl]-2-(4-fluorophenyl)-7-(isopropylsulfanyl)pyrazolo[1,5-α]pyridin-5-amine]"
2,2000 nM,"COc1ccc(-c2nn3c(Sc4ccccc4)cc(NC4CCCC4)cc3c2-c2ccnc(NC3CCCC3)n2)cc1 [Example 12, N-Cyclopentyl-3-[2-(cyclopentylamino)-4-pyrimidinyl]-2-(4-methoxyphenyl)-7-(phenylsulfanyl)pyrazolo[1,5-α]pyridin-5-amine]"
3,46 nM,"CCSc1cc(NC2CCCC2)cc2c(-c3ccnc(NC4CCCC4)n3)c(-c3ccc(OC)cc3)nn12 [Example 10, N-Cyclopentyl-3-[2-(cyclopentylamino)-4-pyrimidinyl]-7-(ethylsulfanyl)-2-(4-methoxyphenyl)pyrazolo[1,5-α]pyridin-5-amine]"
4,135 nM,"COc1ccc(-c2nn3c(SC)cc(NC4CCCC4)cc3c2-c2ccnc(NC3CCCC3)n2)cc1 [Example 9, N-Cyclopentyl-3-[2-(cyclopentylamino)-4-pyrimidinyl]-2-(4-methoxyphenyl)-7-(methylsulfanyl)pyrazolo[1,5-α]pyridin-5-amine]"
